The record followed here is patent US9491933B2, “Infected nail of animal infected with fungus” (POLA PHARMA, INC., priority 2007, dated 2016).

The nature of this experiment: Rabbit immunity suppression: body weight change after administration of the immunosuppressive agent. The conditions noted are these: 4 mg/kg per dose to femoral muscle once a week; 2 weeks after starting the administration; average of 15 rabbits. It counts as in vivo, Japanese white rabbit. The procedure:
14 week old Japanese white rabbits (Kbl: JW, Kitayama Labes Co., Ltd.) were quarantined and acclimatized for 1 week. After acclimatization, a long-acting methylprednisolone acetate preparation (Depo Melcort, Fuji Pharma Co., Ltd.) was administered as an immunosuppressive agent to femoral muscle a total of three times, with 4 mg/kg as the amount administered in one dose, at intervals of once a week. […] At a point 2 weeks after starting the administration, at which the average of the weights of a total of 15 rabbits had decreased by about 6% from the weight prior to administration, inoculation with a fungal liquid was carried out.

As to `CC(=O)OCC(=O)[C@@]1(O)CC[C@H]2[C@@H]3C[C@H](C)C4=CC(=O)C=C[C@]4(C)[C@H]3[C@@H](O)C[C@@]21C` [methylprednisolone acetate], the “decrease of average weight from the weight prior to administration (indicator of immunocompromise)” value is “about 6%”.
